Reference: patent publication US20110130365A1, “Fluorinated Heteroaryls” (priority 2008, published 2011)
Counter-ions that a name gives are not always drawn.

Biological target: T1, Full-length glucokinase (beta cell isoform) (Homo sapiens, UniProt P35557)
T1 construct: Full-length glucokinase (beta cell isoform) was His-tagged at N-terminus; His tag (N); made in house
T1 sequence (P35557 1-465): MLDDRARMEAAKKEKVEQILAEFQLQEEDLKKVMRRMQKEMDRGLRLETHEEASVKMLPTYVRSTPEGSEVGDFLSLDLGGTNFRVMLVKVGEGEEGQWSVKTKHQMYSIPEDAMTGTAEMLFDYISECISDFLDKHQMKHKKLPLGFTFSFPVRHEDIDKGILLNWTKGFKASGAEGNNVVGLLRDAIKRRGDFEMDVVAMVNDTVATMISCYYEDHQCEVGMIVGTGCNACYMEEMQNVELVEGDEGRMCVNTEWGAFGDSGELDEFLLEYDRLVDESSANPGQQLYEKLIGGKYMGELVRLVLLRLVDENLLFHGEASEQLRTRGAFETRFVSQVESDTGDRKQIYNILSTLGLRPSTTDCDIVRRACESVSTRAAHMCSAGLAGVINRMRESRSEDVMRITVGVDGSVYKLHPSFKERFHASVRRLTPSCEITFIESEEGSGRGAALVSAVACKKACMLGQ
Assay: Glucokinase activation assay (PK/LDH-coupled, NADH depletion at 340 nm)
Assay type: biochemical
Conditions: 5 mM glucose, 2.5 mM ATP, pH 7.1, room temperature, values given as a range where N>1; for Emax: fitted % max activation, read-out: Maximum Activation
Procedure: Full-length glucokinase (beta cell isoform) was His-tagged at N-terminus and purified by a Ni column followed by size exclusion chromatography. A 320 mL column was packed in house using Pharmacia Superdex75 preparation grade resin. Glucose was obtained from Calbiochem (San Diego, Calif.) and other reagents were purchased from Sigma (St. Louis, Mo.).
All assays were performed in a Corning 384-well plate using Spectramax PLUS spectrophotometer (Molecular Devices, Sunnyvale, Calif.) at room temperature. The final assay volume was 40 μL. The buffer conditions used in this assay were as follows: 50 mM HEPES, 5 mM glucose, 2.5 mM ATP, 3.5 mM MgCl2, 0.7 mM NADH, 2 mM dithiothreitol, 1 Unit/mL PK/LDH, 0.2 mM phosphoenolpyruvate, and 25 mM KCl. The buffer pH was 7.1. The test compound in DMSO solution was added to the buffer and mixed by a plate shaker for 7.5 minutes. The final concentration of DMSO introduced into the assay was 0.25%.
Glucokinase was added to the buffer mixture to initiate the reaction in the presence and absence of compound. The reaction was monitored by absorbance at 340 nm due to the depletion of NADH. The initial reaction velocity was measured by the slope of a linear time course of 0-300 seconds. The percentage of activation was calculated by the following equation:
% Activation=(Va/Vo−1)×100;
wherein each of Va and Vo is defined as the initial reaction velocity in the presence and absence of the tested compound, respectively.
To determine the EC50 (half maximal effective concentration) and % maximum activation, compounds were serially diluted in DMSO by 3-fold. The GK activities were measured as a function of compound concentrations. The data were fitted to the equation below to obtain the EC50 and % max activation values:
Va/Vo=1+(% max activation/100)/(1+EC50/compound concentration)

SMILES	Emax	EC50
O=C(Nc1ccccn1)[C@H](CC1CCCC1)n1cc(C(F)(F)F)ccc1=O [Example 21, (S)-3-cyclopentyl-2-(2-oxo-5-(trifluoromethyl)pyridin-1(2H)-yl)-N-(pyridin-2-yl)propanamide]	113%	300 nM
Cc1cnc(NC(=O)[C@H](CC2CCCC2)n2cnc(C(F)(F)F)cc2=O)cn1 [Example 22, (S)-3-cyclopentyl-N-(5-methylpyrazin-2-yl)-2-(6-oxo-4-(trifluoromethyl)pyrimidin-1(6H)-yl)propanamide]	130%	20200 nM
CC(C)(O)Cn1ccc(NC(=O)[C@H](CC2CCCC2)n2ccc(C(F)(F)F)cc2=O)n1 [Example 32, (S)-3-cyclopentyl-N-(1-(2-hydroxy-2-methylpropyl)-1H-pyrazol-3-yl)-2-(2-oxo-4-(trifluoromethyl)pyridin-1(2H)-yl)propanamide]	87 to 90%	6900 to 7500 nM
O=C(Nc1ccncn1)[C@H](CC1CCCC1)n1cc(C(F)(F)F)ccc1=O [Example 9, (S)-3-cyclopentyl-2-(2-oxo-5-(trifluoromethyl)pyridin-1(2H)-yl)-N-(pyrimidin-4-yl)propanamide]	95 to 106%	1100 to 1400 nM
Cn1ccc(NC(=O)[C@H](CC2CCOCC2)n2cc(C(F)(F)F)ccc2=O)n1 [Example 40, (S)—N-(1-methyl-1H-pyrazol-3-yl)-2-(2-oxo-5-(trifluoromethyl)pyridin-1(2H)-yl)-3-(tetrahydro-2H-pyran-4-yl)propanamide]	121%	54000 nM
O=C(Nc1ccc2ccccc2n1)[C@H](CC1CCCC1)n1cc(C(F)(F)F)ccc1=O [Example 19, (S)-3-cyclopentyl-2-(2-oxo-5-(trifluoromethyl)pyridin-1(2H)-yl)-N-(quinolin-2-yl)propanamide]	89%	500 nM
CC(C)(O)Cn1ccc(NC(=O)[C@H](CC2CCCC2)n2cc(C(F)(F)F)ccc2=O)n1 [Example 31, (S)-3-cyclopentyl-N-(1-(2-hydroxy-2-methylpropyl)-1H-pyrazol-3-yl)-2-(2-oxo-5-(trifluoromethyl)pyridin-1(2H)-yl)propanamide]	172 to 194%	1100 to 2000 nM
Cc1cnc(NC(=O)[C@H](CC2CCCC2)n2cc(C(F)(F)F)ccc2=O)cn1 [Example 7, (S)-3-cyclopentyl-N-(5-methylpyrazin-2-yl)-2-(2-oxo-5-(trifluoromethyl)pyridin-1(2H)-yl)propanamide]	118 to 152%	1600 to 3700 nM
Cc1cnc(NC(=O)[C@H](CC2CCCC2)n2ccc(C(F)(F)F)cc2=O)cn1 [Example 1, (S)-3-cyclopentyl-N-(5-methylpyrazin-2-yl)-2-(2-oxo-4-(trifluoromethyl)pyridin-1(2H)-yl)propanamide]	76 to 100%	5000 to 10500 nM
O=C(Nc1ccn(Cc2ccccc2)n1)[C@H](CC1CCCC1)n1cc(C(F)(F)F)ccc1=O [Example 11, (S)—N-(1-benzyl-1H-pyrazol-3-yl)-3-cyclopentyl-2-(2-oxo-5-(trifluoromethyl)pyridin-1(2H)-yl)propanamide]	108 to 141%	700 to 1300 nM
O=C(Nc1ccon1)[C@H](CC1CCCC1)n1cc(C(F)(F)F)ccc1=O [Example 18, (S)-3-cyclopentyl-N-(isoxazol-3-yl)-2-(2-oxo-5-(trifluoromethyl)pyridin-1(2H)-yl)propanamide]	103%	9300 nM
Cc1ccc(NC(=O)[C@H](CC2CCCC2)n2cc(C(F)(F)F)ccc2=O)nc1 [Example 6, (S)-3-cyclopentyl-N-(5-methylpyridin-2-yl)-2-(2-oxo-5-(trifluoromethyl)pyridin-1(2H)-yl)propanamide]	88 to 105%	200 to 800 nM
O=C(O)c1ccc(NC(=O)[C@H](CC2CCCC2)n2cc(C(F)(F)F)ccc2=O)nc1 [Example 28, (S)-6-(3-cyclopentyl-2-(2-oxo-5-(trifluoromethyl)pyridin-1(2H)-yl)propanamido)nicotinic acid mono acetic acid salt]	147%	500 nM
O=C(Nc1ccncn1)[C@H](CC1CCCC1)n1ccc(C(F)(F)F)cc1=O [Example 14, (S)-3-cyclopentyl-2-(2-oxo-4-(trifluoromethyl)pyridin-1(2H)-yl)-N-(pyrimidin-4-yl)propanamide]	58%	5800 nM
COC(=O)c1ccc(NC(=O)[C@H](CC2CCCC2)n2cc(C(F)(F)F)ccc2=O)nc1 [Example 27, (S)-methyl 6-(3-cyclopentyl-2-(2-oxo-5-(trifluoromethyl)pyridin-1(2H)-yl)propanamido)nicotinate]	84%	200 nM
O=C(Nc1ccc(C(F)(F)F)cn1)[C@H](CC1CCCC1)n1cc(C(F)(F)F)ccc1=O [Example 17, (S)-3-cyclopentyl-2-(2-oxo-5-(trifluoromethyl)pyridin-1(2H)-yl)-N-(5-(trifluoromethyl)pyridin-2-yl)propanamide]	57%	400 nM
COc1cnc(NC(=O)[C@H](CC2CCCC2)n2cc(C(F)(F)F)ccc2=O)cn1 [Example 20, (S)-3-cyclopentyl-N-(5-methoxypyrazin-2-yl)-2-(2-oxo-5-(trifluoromethyl)pyridin-1(2H)-yl)propanamide]	114%	1200 nM
